Square brackets hold non-standard residues; d marks the D form. Peptide text beside a SMILES is read from it. * marks the point of attachment. Propanoyl(3-indol-3-yl) = O=C(CCc1c[nH]c2ccccc12)*; Butyryl(4-indol-3-yl) = O=C(CCCc1c[nH]c2ccccc12)*; Propanoyl(3-(3-pyridyl)) = O=C(CCc1cccnc1)*; Desaminotyrosyl = O=C(CCc1ccc(O)cc1)*; X20 = O=C(c1cc(-c2ccncc2)n[nH]1)*; X45 = CC(=O)c1ccc(OCCCC(=O)*)cc1; hArg = N=C(N)NCCCC[C@H](N)C(=O)O; X39 = O=C(C1CCC(c2ccccc2)CC1)*; X22 = O=C(C1CC(Cc2ccccc2)C1)*; X8 = O=C(c1ccc(N2CCOCC2)nc1)*; X11 = O=C(CCCOc1ccc(Br)cc1)*; X30 = O=C(CCc1cccc(O)c1)*; X35 = Nc1ccc(CCC(=O)*)cn1; X27 = O=C(CCCN1CCOCC1)*; Cbz = O=C(OCc1ccccc1)*; Pentanoyl = CCCCC(=O)*; GABA = NCCCC(=O)O
Key:
PCSK9 = PCSK9 (Homo sapiens, UniProt Q8NBP7); test: PCSK9/EGF(A) TR-FRET binding assay; details: TR-FRET; Table 8E, additional compounds; read-out: PCSK9/EGF(A) IC50
PCSK9Δhelix = target: T1, PCSK9Δhelix (Homo sapiens, UniProt Q8NBP7); test: PCSK9Δhelix/Ab20 TR-FRET binding assay; details: TR-FRET; Table 8E, additional compounds; read-out: PCSK9Δhelix/Ab20 IC50
T1 construct: Human PCSK9 construct M1-Q692 with an engineered TEV site (residue deletion Y166, R167); made in house; host or cells: CHO
T1 sequence (Q8NBP7 with tags, fused parts or gaps limits assumed): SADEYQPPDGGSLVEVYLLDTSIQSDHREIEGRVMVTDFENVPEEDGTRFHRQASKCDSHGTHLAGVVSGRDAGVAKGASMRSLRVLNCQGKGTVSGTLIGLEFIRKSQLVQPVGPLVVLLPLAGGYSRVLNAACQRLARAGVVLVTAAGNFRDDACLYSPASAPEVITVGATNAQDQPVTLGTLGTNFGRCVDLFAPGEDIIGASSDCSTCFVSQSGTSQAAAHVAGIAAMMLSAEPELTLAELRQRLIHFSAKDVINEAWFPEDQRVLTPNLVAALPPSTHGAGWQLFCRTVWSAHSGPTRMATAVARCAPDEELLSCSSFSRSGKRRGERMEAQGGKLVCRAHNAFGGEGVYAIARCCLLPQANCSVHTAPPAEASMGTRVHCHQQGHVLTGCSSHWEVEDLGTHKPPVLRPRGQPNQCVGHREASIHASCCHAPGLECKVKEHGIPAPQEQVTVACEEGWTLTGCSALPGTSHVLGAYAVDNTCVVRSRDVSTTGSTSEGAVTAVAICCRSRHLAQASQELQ
T1 sequence (Q8NBP7 31-152 partner limits assumed): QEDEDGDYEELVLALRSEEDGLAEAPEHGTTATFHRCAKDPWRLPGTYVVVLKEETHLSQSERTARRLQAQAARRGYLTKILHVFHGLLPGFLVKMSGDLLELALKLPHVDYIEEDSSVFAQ

Sequence of PCSK9 (Q8NBP7 153-692): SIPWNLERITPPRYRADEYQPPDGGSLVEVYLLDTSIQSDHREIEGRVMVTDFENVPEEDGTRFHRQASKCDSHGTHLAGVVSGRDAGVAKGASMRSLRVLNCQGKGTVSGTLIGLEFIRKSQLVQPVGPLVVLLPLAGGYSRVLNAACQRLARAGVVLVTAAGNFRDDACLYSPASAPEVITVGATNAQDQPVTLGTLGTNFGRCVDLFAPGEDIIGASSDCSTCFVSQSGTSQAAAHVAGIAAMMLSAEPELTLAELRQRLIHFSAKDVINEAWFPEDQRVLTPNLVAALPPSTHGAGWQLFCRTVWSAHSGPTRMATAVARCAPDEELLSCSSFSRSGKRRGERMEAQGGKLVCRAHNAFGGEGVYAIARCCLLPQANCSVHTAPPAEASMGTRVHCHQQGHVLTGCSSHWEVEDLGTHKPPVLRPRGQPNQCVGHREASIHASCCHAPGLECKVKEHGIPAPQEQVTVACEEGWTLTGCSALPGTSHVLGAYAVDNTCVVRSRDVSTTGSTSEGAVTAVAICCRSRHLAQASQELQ
Sequence of PCSK9 (Q8NBP7 31-152 partner limits assumed): as the sequence (Q8NBP7 31-152 partner limits assumed) above

CC[C@H](C)[C@H](NC(=O)[C@H](CCCNC(=N)N)NC(=O)[C@@H](NC(=O)[C@H](CC(C)C)NC(=O)[C@H](CC(N)=O)NC(=O)[C@H](Cc1c[nH]c2ccccc12)NC(=O)CCc1cccc(O)c1)C(C)C)C(=O)NCC(=O)N[C@@H](CC(C)C)C(=O)N[C@H](C(=O)N[C@@H](CCCNC(=N)N)C(N)=O)[C@@H](C)O [Compound 168] (X30-WNLVRIGLTR-NH2)
IC50 (PCSK9): ≥ 50 µM | IC50 (PCSK9Δhelix): 7.8 µM

CC[C@H](C)[C@H](NC(=O)[C@H](CCCNC(=N)N)NC(=O)[C@@H](NC(=O)[C@H](CC(C)C)NC(=O)[C@H](CC(N)=O)NC(=O)[C@H](Cc1c[nH]c2ccccc12)NC(=O)CCCNC(=O)OCc1ccccc1)C(C)C)C(=O)NCC(=O)N[C@@H](CC(C)C)C(=O)N[C@H](C(=O)N[C@@H](CCCNC(=N)N)C(N)=O)[C@@H](C)O [Compound 169] ({Cbz-GABA}-WNLVRIGLTR-NH2)
IC50 (PCSK9): ≥ 50 µM | IC50 (PCSK9Δhelix): 6.8 µM

CC[C@H](C)[C@H](NC(=O)[C@H](CCCNC(=N)N)NC(=O)[C@@H](NC(=O)[C@H](CC(C)C)NC(=O)[C@H](CC(N)=O)NC(=O)[C@H](Cc1c[nH]c2ccccc12)NC(=O)CCc1ccc(O)cc1)C(C)C)C(=O)NCC(=O)N[C@@H](CC(C)C)C(=O)N[C@H](C(=O)N[C@@H](CCCNC(=N)N)C(N)=O)[C@@H](C)O [Compound 170] (Desaminotyrosyl-WNLVRIGLTR-NH2)
IC50 (PCSK9): ≥ 50 µM | IC50 (PCSK9Δhelix): 3.1 µM

CC[C@H](C)[C@H](NC(=O)[C@H](CCCNC(=N)N)NC(=O)[C@@H](NC(=O)[C@H](CC(C)C)NC(=O)[C@H](CC(N)=O)NC(=O)[C@H](Cc1c[nH]c2ccccc12)NC(=O)CCc1ccc(N)nc1)C(C)C)C(=O)NCC(=O)N[C@@H](CC(C)C)C(=O)N[C@H](C(=O)N[C@@H](CCCNC(=N)N)C(N)=O)[C@@H](C)O [Compound 171] (X35-WNLVRIGLTR-NH2)
IC50 (PCSK9): ≥ 50 µM | IC50 (PCSK9Δhelix): 7.7 µM

CC[C@H](C)[C@H](NC(=O)[C@H](CCCNC(=N)N)NC(=O)[C@@H](NC(=O)[C@H](CC(C)C)NC(=O)[C@H](CC(N)=O)NC(=O)[C@H](Cc1c[nH]c2ccccc12)NC(=O)c1ccc(N2CCOCC2)nc1)C(C)C)C(=O)NCC(=O)N[C@@H](CC(C)C)C(=O)N[C@H](C(=O)N[C@@H](CCCNC(=N)N)C(N)=O)[C@@H](C)O [Compound 172] (X8-WNLVRIGLTR-NH2)
IC50 (PCSK9): ≥ 50 µM | IC50 (PCSK9Δhelix): 8.5 µM

CC[C@H](C)[C@H](NC(=O)[C@H](CCCNC(=N)N)NC(=O)[C@@H](NC(=O)[C@H](CC(C)C)NC(=O)[C@H](CC(N)=O)NC(=O)[C@H](Cc1c[nH]c2ccccc12)NC(=O)CCc1cccnc1)C(C)C)C(=O)NCC(=O)N[C@@H](CC(C)C)C(=O)N[C@H](C(=O)N[C@@H](CCCNC(=N)N)C(N)=O)[C@@H](C)O [Compound 173] ({Propanoyl(3-(3-pyridyl))}-WNLVRIGLTR-NH2)
IC50 (PCSK9): ≥ 50 µM | IC50 (PCSK9Δhelix): 9.8 µM

CCCCC(=O)N[C@@H](Cc1c[nH]c2ccccc12)C(=O)N[C@@H](CC(N)=O)C(=O)N[C@@H](CC(C)C)C(=O)N[C@H](C(=O)N[C@@H](CCCNC(=N)N)C(=O)N[C@H](C(=O)NCC(=O)N[C@@H](CC(C)C)C(=O)N[C@@H](CO)C(=O)N[C@@H](CCCNC(=N)N)C(N)=O)[C@@H](C)CC)C(C)C [Compound 181] (Pentanoyl-WNLVRIGLSR-NH2)
IC50 (PCSK9): ≥ 50 µM | IC50 (PCSK9Δhelix): 8.9 µM

CC[C@H](C)[C@H](NC(=O)[C@H](CCCNC(=N)N)NC(=O)[C@@H](NC(=O)[C@H](CC(C)C)NC(=O)[C@H](CC(N)=O)NC(=O)[C@H](Cc1c[nH]c2ccccc12)NC(=O)CCCOc1ccc(Br)cc1)C(C)C)C(=O)NCC(=O)N[C@@H](CC(C)C)C(=O)N[C@H](C(=O)N[C@@H](CCCNC(=N)N)C(N)=O)[C@@H](C)O [Compound 182] (X11-WNLVRIGLTR-NH2)
IC50 (PCSK9): 14 µM | IC50 (PCSK9Δhelix): 4 µM

CC[C@H](C)[C@H](NC(=O)[C@H](CCCNC(=N)N)NC(=O)[C@@H](NC(=O)[C@H](CC(C)C)NC(=O)[C@H](CC(N)=O)NC(=O)[C@H](Cc1c[nH]c2ccccc12)NC(=O)CCCOc1ccc(C(C)=O)cc1)C(C)C)C(=O)NCC(=O)N[C@@H](CC(C)C)C(=O)N[C@H](C(=O)N[C@@H](CCCNC(=N)N)C(N)=O)[C@@H](C)O [Compound 183] (X45-WNLVRIGLTR-NH2)
IC50 (PCSK9): 18 µM | IC50 (PCSK9Δhelix): 2.5 µM

CC[C@H](C)[C@H](NC(=O)[C@H](CCCNC(=N)N)NC(=O)[C@@H](NC(=O)[C@H](CC(C)C)NC(=O)[C@H](CC(N)=O)NC(=O)[C@H](Cc1c[nH]c2ccccc12)NC(=O)C1CC(Cc2ccccc2)C1)C(C)C)C(=O)NCC(=O)N[C@@H](CC(C)C)C(=O)N[C@H](C(=O)N[C@@H](CCCNC(=N)N)C(N)=O)[C@@H](C)O (some centres unmarked) [Compound 184] (X22-WNLVRIGLTR-NH2)
IC50 (PCSK9): 19 µM | IC50 (PCSK9Δhelix): 12 µM

CC[C@H](C)[C@H](NC(=O)[C@H](CCCNC(=N)N)NC(=O)[C@@H](NC(=O)[C@H](CC(C)C)NC(=O)[C@H](CC(N)=O)NC(=O)[C@H](Cc1c[nH]c2ccccc12)NC(=O)C1CCC(c2ccccc2)CC1)C(C)C)C(=O)NCC(=O)N[C@@H](CC(C)C)C(=O)N[C@H](C(=O)N[C@@H](CCCNC(=N)N)C(N)=O)[C@@H](C)O (some centres unmarked) [Compound 185] (X39-WNLVRIGLTR-NH2)
IC50 (PCSK9): 5.7 µM | IC50 (PCSK9Δhelix): 0.39 µM

CC[C@H](C)[C@H](NC(=O)[C@H](CCCNC(=N)N)NC(=O)[C@@H](NC(=O)[C@H](CC(C)C)NC(=O)[C@H](CC(N)=O)NC(=O)[C@H](Cc1c[nH]c2ccccc12)NC(=O)c1cc(-c2ccncc2)n[nH]1)C(C)C)C(=O)NCC(=O)N[C@@H](CC(C)C)C(=O)N[C@H](C(=O)N[C@@H](CCCNC(=N)N)C(N)=O)[C@@H](C)O [Compound 188] (X20-WNLVRIGLTR-NH2)
IC50 (PCSK9): 22 µM | IC50 (PCSK9Δhelix): 7.6 µM

CC[C@H](C)[C@H](NC(=O)[C@H](CCCNC(=N)N)NC(=O)[C@@H](NC(=O)[C@H](CC(C)C)NC(=O)[C@H](CC(N)=O)NC(=O)[C@H](Cc1c[nH]c2ccccc12)NC(=O)CCc1c[nH]c2ccccc12)C(C)C)C(=O)NCC(=O)N[C@@H](CC(C)C)C(=O)N[C@H](C(=O)N[C@@H](CCCNC(=N)N)C(N)=O)[C@@H](C)O [Compound 189] ({Propanoyl(3-indol-3-yl)}-WNLVRIGLTR-NH2)
IC50 (PCSK9): 38 µM | IC50 (PCSK9Δhelix): 12 µM

CC[C@H](C)[C@H](NC(=O)[C@H](CCCNC(=N)N)NC(=O)[C@@H](NC(=O)[C@H](CC(C)C)NC(=O)[C@H](CC(N)=O)NC(=O)[C@H](Cc1c[nH]c2ccccc12)NC(=O)CCCc1c[nH]c2ccccc12)C(C)C)C(=O)NCC(=O)N[C@@H](CC(C)C)C(=O)N[C@H](C(=O)N[C@@H](CCCNC(=N)N)C(N)=O)[C@@H](C)O [Compound 190] ({Butyryl(4-indol-3-yl)}-WNLVRIGLTR-NH2)
IC50 (PCSK9): 30 µM | IC50 (PCSK9Δhelix): 7 µM

CCCCC(=O)N[C@@H](Cc1c[nH]c2ccccc12)C(=O)N[C@@H](CC(N)=O)C(=O)N[C@@H](CC(C)C)C(=O)N[C@H](C(=O)N[C@@H](CCCCNC(=N)N)C(=O)N[C@H](C(=O)NCC(=O)N[C@@H](CC(C)C)C(=O)N[C@@H](CC(C)C)C(=O)N[C@@H](CCCNC(=N)N)C(N)=O)[C@@H](C)CC)C(C)C [Compound 191, n-BuC(O)-WNLV(homoR)IGLLR-NH2] (Pentanoyl-WNLV[hArg]IGLLR-NH2)
IC50 (PCSK9): ≥ 50 µM | IC50 (PCSK9Δhelix): 1.3 µM

CC[C@H](C)[C@H](NC(=O)[C@H](CCCCNC(=N)N)NC(=O)[C@@H](NC(=O)[C@H](CC(C)C)NC(=O)[C@H](CC(N)=O)NC(=O)[C@H](Cc1c[nH]c2ccccc12)NC(=O)CCCN1CCOCC1)C(C)C)C(=O)NCC(=O)N[C@@H](CC(C)C)C(=O)N[C@@H](CC(C)C)C(=O)N[C@@H](CCCNC(=N)N)C(N)=O [Compound 193] (X27-WNLV[hArg]IGLLR-NH2)
IC50 (PCSK9): ≥ 50 µM | IC50 (PCSK9Δhelix): 1.5 µM

— US11034725B2, “Compositions and methods for treating cardiovascular disease” (Genentech, Inc., priority 2016, dated 2021)
